# Test results from patent US7763615B2, “Ecteinascidin analogs for use as antitumour agents” (priority 2001, dated 2010).
# Legend:
# CYP2D6 = CYP2D6 (Homo sapiens, UniProt P10635); assay: in vitro; conditions: CYP2D6 (% inhibition)
# (HEPG2) = conditions: human, 24 h, 30 μM
# physchem [1] = conditions: pH 7.4, aqueous buffer, Solubility Dulbecco's PBS pH 7.4
# CYP3A4 = CYP3A4 (Homo sapiens, UniProt P08684); assay: in vitro; conditions: CYP3A4 (% inhibition)
# [2] = test system: H9c2 (2-1), normal rat cardiac muscle cells; conditions: 24 h
# [3] = test system: NRK-52E, normal rat kidney cells; conditions: 24 h
# [4] = test system: AML-12, normal mouse liver cells; conditions: 24 h
# physchem [5] = conditions: pH 7.4, log D n-Octanol-Dulbecco's PBS pH 7.4
# MEL-28 = assay: cells; format: cell-based; conditions: Homo sapiens, SK-MEL-28, 48 h
# How it was run: (§1)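 Absorbance at 490 nm of sulphorhodamine B bound by TCA-fixed cells gives the growth readout after 48 h continuous exposure to test samples (10 to 10^−8 μg/ml). Cells were seeded at 5×10^3 per well in RPMI 1640/10% FBS and allowed 18 h to attach first.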
# PANC-1 = assay: cells; format: cell-based; conditions: Homo sapiens, PANC-1, 48 h
# How it was run: as §1
# IGROV-ET = assay: cells; format: cell-based; conditions: Homo sapiens, 48 h
# How it was run: as §1
# DU145 = assay: cells; format: cell-based; conditions: Homo sapiens, DU-145, 48 h
# How it was run: as §1
# LNCAP = assay: cells; format: cell-based; conditions: Homo sapiens, LNCaP, 48 h
# How it was run: as §1
# A549 = assay: cells; format: cell-based; conditions: Homo sapiens, A549, 48 h
# How it was run: as §1
# LOVO = assay: cells; format: cell-based; conditions: Homo sapiens, LoVo, 48 h
# How it was run: as §1
# HT29 = assay: cells; format: cell-based; conditions: Homo sapiens, HT-29, 48 h
# How it was run: as §1
# K562 = assay: cells; format: cell-based; conditions: Homo sapiens, K562, 48 h
# How it was run: as §1
# SK-BR3 = assay: cells; format: cell-based; conditions: Homo sapiens, SK-BR-3, 48 h
# How it was run: as §1
# LOVO-DOX = assay: cells; format: cell-based; conditions: Homo sapiens, 48 h
# How it was run: as §1
# H-MEC-1 = assay: Inhibition of cells growth by colorimetric assay (SRB), H-MEC-1; format: cell-based; conditions: Homo sapiens, HMEC-1, 48 h
# How it was run: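 SRB colorimetric growth assay: 5×10^3 cells/well, 18 h attachment, 48 h continuous compound exposure at 10–10^−8 μg/ml in DMSO/EtOH/PBS. TCA fixation, SRB stain, OD 490 nm; triplicate wells, GI, TGI and LC derived.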
# [6] = s9, 60 min, 1 μM
# SK-OV3 = assay: Inhibition of cells growth by colorimetric assay (SRB), SK-OV3; format: cell-based
# How it was run: as §1
# [7] = IGROV-ET, 48 hours exposure, SRB
# [8] = LOVO-DOX, 48 hours exposure, SRB
# [9] = H-MEC-1, 48 hours exposure, SRB
# Sequence of CYP2D6 (P10635 whole entry): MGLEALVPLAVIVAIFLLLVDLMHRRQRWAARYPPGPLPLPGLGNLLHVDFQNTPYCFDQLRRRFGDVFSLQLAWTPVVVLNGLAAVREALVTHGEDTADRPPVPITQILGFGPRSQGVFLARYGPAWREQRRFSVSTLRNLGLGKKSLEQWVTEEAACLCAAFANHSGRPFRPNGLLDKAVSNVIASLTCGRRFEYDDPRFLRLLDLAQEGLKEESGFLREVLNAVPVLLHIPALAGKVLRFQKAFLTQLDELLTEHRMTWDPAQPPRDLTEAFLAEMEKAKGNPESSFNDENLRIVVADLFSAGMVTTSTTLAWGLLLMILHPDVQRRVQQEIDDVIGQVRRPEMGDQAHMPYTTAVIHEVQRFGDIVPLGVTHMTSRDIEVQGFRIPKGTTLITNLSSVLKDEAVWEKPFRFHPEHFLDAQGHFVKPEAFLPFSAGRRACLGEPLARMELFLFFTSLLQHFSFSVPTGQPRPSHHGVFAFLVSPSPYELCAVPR
# Sequence of CYP3A4 (P08684 whole entry): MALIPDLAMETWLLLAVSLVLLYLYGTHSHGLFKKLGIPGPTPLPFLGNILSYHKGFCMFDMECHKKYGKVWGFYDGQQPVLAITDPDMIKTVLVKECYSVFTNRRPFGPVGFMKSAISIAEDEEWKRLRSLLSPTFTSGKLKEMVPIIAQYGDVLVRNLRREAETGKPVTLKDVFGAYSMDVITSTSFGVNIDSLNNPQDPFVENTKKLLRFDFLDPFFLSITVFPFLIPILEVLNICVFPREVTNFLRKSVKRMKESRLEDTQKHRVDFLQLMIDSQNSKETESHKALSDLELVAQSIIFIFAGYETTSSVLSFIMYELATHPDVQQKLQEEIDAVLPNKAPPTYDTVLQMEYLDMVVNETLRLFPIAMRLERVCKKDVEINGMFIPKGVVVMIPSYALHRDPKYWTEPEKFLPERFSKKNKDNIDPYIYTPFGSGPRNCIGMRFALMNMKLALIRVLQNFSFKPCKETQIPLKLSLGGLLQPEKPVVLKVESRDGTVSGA
compound,measurement,setting,value
COc1c(C)cc2c(c1O)[C@@H]1C3[C@@H]4SC[C@]5(NCCc6c5[nH]c5c(C)cccc65)C(=O)COC[C@@H](c5c6c(c(C)c(OC(C)=O)c54)OCO6)N3[C@@H](O)[C@H](C2)N1C (stereo partly drawn) [Compound 36],"inhibition at 450 min, 10 µM",CYP2D6,15%
same,Cell Viability (% inhibition),(HEPG2),33 % inhibition
same,solubility,physchem [1],26 µM
same,"inhibition at 30 min, 10 µM",CYP3A4,78%
same,Heart,[2],8.86E−07
same,Kidney,[3],3.56E−07
same,Liver,[4],3.19E−07
same,logD at 60 min,physchem [5],> 4.4
same,GI50,"MEL-28; MEL-28, 48 hours exposure, SRB",2.16 nM
same,IC (TGI),"MEL-28; MEL-28, 48 hours exposure, SRB",5.23 nM
same,CC50,"MEL-28; read-out: LC50, MEL-28, 48 hours exposure, SRB",12.6 nM
same,GI50,"PANC-1; PANC-1, 48 hours exposure, SRB",42.1 nM
same,IC (TGI),"PANC-1; PANC-1, 48 hours exposure, SRB",104 nM
same,CC50,"PANC-1; read-out: LC50, PANC-1, 48 hours exposure, SRB",13000 nM
same,GI50,IGROV-ET; [7],50.3 nM
same,IC (TGI),IGROV-ET; [7],103 nM
same,CC50,"IGROV-ET; read-out: LC50, IGROV-ET, 48 hours exposure, SRB",130 nM
same,GI50,"DU145; DU145, 48 hours exposure, SRB",5.41 nM
same,IC (TGI),"DU145; DU145, 48 hours exposure, SRB",9.39 nM
same,CC50,"DU145; read-out: LC50, DU145, 48 hours exposure, SRB",13000 nM
same,GI50,"LNCAP; 48 hours exposure, SRB",6.14 nM
same,IC (TGI),"LNCAP; 48 hours exposure, SRB",9.48 nM
same,CC50,"LNCAP; read-out: LC50, LNCAP, 48 hours exposure, SRB",25.1 nM
same,GI50,"A549; A549, 48 hours exposure, SRB, read-out: GI50",28.4 nM
same,IC (TGI),"A549; A549, 48 hours exposure, SRB, read-out: TGI",50.7 nM
same,CC50,"A549; read-out: LC50, A549, 48 hours exposure, SRB",90.9 nM
same,GI50,"LOVO; 48 hours exposure, SRB",27.3 nM
same,IC (TGI),"LOVO; 48 hours exposure, SRB",54.6 nM
same,CC50,"LOVO; read-out: LC50, LOVO, 48 hours exposure, SRB",109 nM
same,GI50,"HT29; HT29, 48 hours exposure, SRB",61.8 nM
same,IC (TGI),"HT29; HT29, 48 hours exposure, SRB",187 nM
same,CC50,"HT29; read-out: LC50, HT29, 48 hours exposure, SRB",13000 nM
same,GI50,"K562; K562, 48 hours exposure, SRB",6.15 nM
same,IC (TGI),"K562; K562, 48 hours exposure, SRB",9.92 nM
same,CC50,"K562; read-out: LC50, K562, 48 hours exposure, SRB",109 nM
same,GI50,"SK-BR3; SK-BR3, 48 hours exposure, SRB",11.8 nM
same,IC (TGI),"SK-BR3; SK-BR3, 48 hours exposure, SRB",32 nM
same,CC50,"SK-BR3; read-out: LC50, SK-BR3, 48 hours exposure, SRB",86.4 nM
same,GI50,LOVO-DOX; [8],70.4 nM
same,IC (TGI),LOVO-DOX; [8],977 nM
same,CC50,"LOVO-DOX; read-out: LC50, LOVO-DOX, 48 hours exposure, SRB",13000 nM
same,GI50,H-MEC-1; [9],84.3 nM
same,IC (TGI),H-MEC-1; [9],783 nM
same,CC50,"H-MEC-1; read-out: LC50, H-MEC-1, 48 hours exposure, SRB",13000 nM
same,Human Liver S9 Metabolic Stability (% remaining),[6],2 % remaining
same,GI50,"SK-OV3; Homo sapiens, SK-OV-3, 48 h, SK-OV3, 48 hours exposure, SRB",50.7 nM
same,CC50,"SK-OV3; Homo sapiens, SK-OV-3, 48 h, read-out: LC50, SK-OV3, 48 hours exposure, SRB",13000 nM
same,TGI,"SK-OV3; SK-OV3, 48 hours exposure, SRB",2.05E−07 Molar
